Assay results taken from US20100105636A1, “T-TYPE CALCIUM CHANNEL BLOCKER” (Nissan Chemical Industries, Ltd., priority 2003, published 2010).

Columns and labels:
Type in all cases: cell-based
T-type Ca channel (α1G) [1] = biological target: T1, T-type Ca channel (α1G) (Homo sapiens, UniProt O43497); experiment: Effect on T-type Ca channel expressed in BHK cells (whole cell patch clamp), Pharmacological Test Example 1; settings: BHK cells expressing T-type Ca channel (α1G), depolarization pulse −20 mV from −80 mV, 5 minutes after application, average value vs vehicle control (100%), read-out: Inhibition (%) of Ca current
T1 construct: expressed in transfected cells; host or cells: BHK (baby hamster kidney) cells
T1 sequence (O43497 whole entry): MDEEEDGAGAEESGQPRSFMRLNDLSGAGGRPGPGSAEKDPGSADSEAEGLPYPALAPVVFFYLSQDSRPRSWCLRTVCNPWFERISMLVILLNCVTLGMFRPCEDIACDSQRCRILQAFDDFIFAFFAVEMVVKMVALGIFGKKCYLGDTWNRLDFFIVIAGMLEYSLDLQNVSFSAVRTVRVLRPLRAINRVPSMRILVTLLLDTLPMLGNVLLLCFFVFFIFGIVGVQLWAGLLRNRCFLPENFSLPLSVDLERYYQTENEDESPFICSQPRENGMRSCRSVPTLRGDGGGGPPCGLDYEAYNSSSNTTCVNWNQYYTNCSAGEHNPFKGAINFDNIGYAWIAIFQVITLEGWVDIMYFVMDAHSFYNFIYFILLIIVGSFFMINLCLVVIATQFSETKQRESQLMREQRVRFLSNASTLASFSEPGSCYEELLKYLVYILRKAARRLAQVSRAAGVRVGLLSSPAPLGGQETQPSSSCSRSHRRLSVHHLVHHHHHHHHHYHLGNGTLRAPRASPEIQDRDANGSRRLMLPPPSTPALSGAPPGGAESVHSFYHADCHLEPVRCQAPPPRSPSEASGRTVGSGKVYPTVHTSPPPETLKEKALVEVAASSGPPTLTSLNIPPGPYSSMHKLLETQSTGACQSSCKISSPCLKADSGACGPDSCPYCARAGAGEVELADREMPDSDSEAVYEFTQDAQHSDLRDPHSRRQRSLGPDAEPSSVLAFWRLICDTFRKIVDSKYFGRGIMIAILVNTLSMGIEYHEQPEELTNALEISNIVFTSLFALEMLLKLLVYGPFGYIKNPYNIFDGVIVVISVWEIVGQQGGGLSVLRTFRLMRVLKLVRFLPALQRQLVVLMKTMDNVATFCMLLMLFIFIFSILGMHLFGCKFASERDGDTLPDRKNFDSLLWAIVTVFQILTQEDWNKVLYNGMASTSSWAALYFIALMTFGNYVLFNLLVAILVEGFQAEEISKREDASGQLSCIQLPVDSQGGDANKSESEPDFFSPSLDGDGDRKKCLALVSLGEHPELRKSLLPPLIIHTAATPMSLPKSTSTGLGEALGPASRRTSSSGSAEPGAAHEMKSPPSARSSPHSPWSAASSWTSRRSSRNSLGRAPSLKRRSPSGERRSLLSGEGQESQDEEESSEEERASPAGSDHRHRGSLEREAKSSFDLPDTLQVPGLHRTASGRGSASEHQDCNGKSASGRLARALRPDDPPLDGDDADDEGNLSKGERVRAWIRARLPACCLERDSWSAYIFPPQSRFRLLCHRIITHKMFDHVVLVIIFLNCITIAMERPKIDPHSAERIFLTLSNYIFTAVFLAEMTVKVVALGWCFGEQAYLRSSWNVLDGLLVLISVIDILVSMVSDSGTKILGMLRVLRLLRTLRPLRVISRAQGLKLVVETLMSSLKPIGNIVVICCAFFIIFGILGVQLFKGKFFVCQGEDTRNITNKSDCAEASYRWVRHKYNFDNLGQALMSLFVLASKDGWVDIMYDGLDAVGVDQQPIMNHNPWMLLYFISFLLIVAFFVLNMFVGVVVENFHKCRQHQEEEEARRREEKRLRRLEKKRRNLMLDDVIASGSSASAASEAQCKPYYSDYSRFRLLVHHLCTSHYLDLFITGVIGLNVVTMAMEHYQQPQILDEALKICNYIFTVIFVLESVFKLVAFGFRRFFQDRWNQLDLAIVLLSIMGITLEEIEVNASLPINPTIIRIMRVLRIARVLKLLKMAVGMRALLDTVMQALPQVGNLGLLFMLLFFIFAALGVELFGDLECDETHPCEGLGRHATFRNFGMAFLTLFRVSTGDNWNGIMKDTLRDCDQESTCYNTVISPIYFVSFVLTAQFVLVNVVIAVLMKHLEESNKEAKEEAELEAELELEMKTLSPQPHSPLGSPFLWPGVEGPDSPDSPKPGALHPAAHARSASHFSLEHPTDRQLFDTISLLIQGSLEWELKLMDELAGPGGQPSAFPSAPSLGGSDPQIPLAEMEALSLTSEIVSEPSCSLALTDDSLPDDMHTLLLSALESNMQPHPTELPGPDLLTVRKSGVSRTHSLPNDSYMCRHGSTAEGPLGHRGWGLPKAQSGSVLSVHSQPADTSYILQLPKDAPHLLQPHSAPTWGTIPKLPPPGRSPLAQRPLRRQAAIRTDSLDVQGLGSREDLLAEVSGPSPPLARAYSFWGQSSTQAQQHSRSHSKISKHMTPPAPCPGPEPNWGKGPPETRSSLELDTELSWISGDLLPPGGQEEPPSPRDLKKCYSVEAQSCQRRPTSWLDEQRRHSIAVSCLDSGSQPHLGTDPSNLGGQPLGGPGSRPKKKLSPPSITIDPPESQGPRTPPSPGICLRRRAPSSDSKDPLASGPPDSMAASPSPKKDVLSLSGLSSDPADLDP
Method: Effect on T-Type Ca Channel Expressed in Mammalian Cells (BHK Cells)
(§1) An electrophysiological evaluation was carried out by use of BHK (baby hamster kidney) cells in which T-type Ca channel (α1G) was expressed according to the method of Wakamori M et al. (Wakamori M et al.: J Biol Chem 273, 34857-34867, 1998) based on the whole cell patch clamp method. Each Ca-ion current was measured through a patch clamp amplifier as an inward current when depolarization pulse (−20 mV) was applied to cells maintained at a membrane potential of −80 mV. Each compound was dissolved in extracellular solution and applied with perfusion. At 5 minutes after the application, any variation in Ca-ion current was measured. The results are shown in Table 1 as Ca current inhibition (%, average value) of the compound of the present invention to Ca current (100%) in vehicle control.

L-type Ca channel = experiment: Effect on L-type Ca channel expressed in BHK cells (whole cell patch clamp), Pharmacological Test Example 2; settings: 10 μM; BHK cells expressing L-type Ca channel; depolarization pulse 10 mV from −80 mV; 5 minutes after application; average value vs vehicle control (100%)
Method: (§2) Effect on L-Type and T-Type Ca Channel Expressed in Mammalian Cells (BHK Cells)
as §1, with “which L-type Ca channel or” for “which”, “pulse (10 mV in L-type Ca channel, −20 mV in T-type Ca channel)” for “pulse (−20 mV)”, “mV. Compound (9)” for “mV. Each compound”, “Table 2” for “Table 1”

T-type Ca channel (α1G) [2] = biological target: T1, T-type Ca channel (α1G); experiment: Effect on T-type Ca channel expressed in BHK cells (whole cell patch clamp), Pharmacological Test Example 2; settings: BHK cells expressing T-type Ca channel (α1G), depolarization pulse −20 mV from −80 mV, 5 minutes after application, average value vs vehicle control (100%), read-out: Inhibition (%) of Ca current, T-type
Method: as §2
as §1, with “which L-type Ca channel or” for “which”, “pulse (10 mV in L-type Ca channel, −20 mV in T-type Ca channel)” for “pulse (−20 mV)”, “mV. Compound (9)” for “mV. Each compound”, “Table 2” for “Table 1”

SMILES | inhibition at 10 µM (T-type Ca channel (α1G) [1]) [%] | Inhibition (%) of Ca current, L-type (L-type Ca channel) [%] | inhibition at 10 µM (T-type Ca channel (α1G) [2]) [%]
Cc1nc(C)c(P2(=O)OCC(C)(C)CO2)c(-c2cccc([N+](=O)[O-])c2)c1C(=O)OCCN(Cc1ccccc1)c1ccccc1 [Compound (4)] | 23.9 | – | –
Cc1nc(C)c(P2(=O)OCC(C)(C)CO2)c(-c2cccc([N+](=O)[O-])c2)c1C(=O)OCCNc1ccccc1 [Compound (5)] | 53.9 | – | –
Cc1nc(C)c(P2(=O)OCC(C)(C)CO2)c(-c2cccc([N+](=O)[O-])c2)c1C(=O)OCCN1CCN(C(c2ccccc2)c2ccccc2)CC1 [Compound (6)] | 43.6 | – | –
COC(=O)c1c(C)nc(C)c(C(=O)OC2CCCN(Cc3ccccc3)C2)c1-c1cccc([N+](=O)[O-])c1 (stereo not shown) [Compound (7)] | 45.8 | – | –
COC(=O)C1=C(C)N(C)C(C)=C(C(=O)OC2CCCN(Cc3ccccc3)C2)C1c1cccc([N+](=O)[O-])c1 (stereo not shown) [Compound (8)] | 30 | – | –
CC1=C(C(=O)OCCN(Cc2ccccc2)c2ccccc2)C(c2cccc([N+](=O)[O-])c2)C(P2(=O)OCC(C)(C)CO2)=C(C)N1CCN1CCOCC1 (stereo not shown) [Compound (9)] | – | 9.9 | 48.9
